We go through one compound from paper PMC6272417, “Quercitrin, an Inhibitor of Sortase A, Interferes with the Adhesion of Staphylococcal aureus” (Molecules, 2015).

The structures appear in SMILES notation.

Conditions in all cases: read-out: Binding Constants KA (1 × 10^5) L.mol^-1 (converted)
Assay [1] has as its target T1, Sortase A (SrtA) (Staphylococcus aureus, UniProt Q2FV99).
T1 construct: SrtAΔN59 (residues 60-206)
Briefly: fluorescence-quenching binding constant KA; also FRET inhibition of purified SrtAΔN59 (IC50 […]).

For assay [2], the target named is T2, Sortase A (SrtA) (Staphylococcus aureus, UniProt Q2FV99, G167A).
T2 construct: SrtAΔN59 (residues 60-206)
Briefly: fluorescence-quenching binding constant KA.

Assay [3] has as its target T3, Sortase A (SrtA) (Staphylococcus aureus, UniProt Q2FV99, V193A).
T3 construct: SrtAΔN59 (residues 60-206)
Briefly: fluorescence-quenching binding constant KA.

Turning to `C[C@@H]1O[C@@H](Oc2c(-c3ccc(O)c(O)c3)oc3cc(O)cc(O)c3c2=O)[C@H](O)[C@H](O)[C@H]1O` [QEN, Quercitrin], the Kd is 1450 nM in assay [1], 2700 nM in assay [2] and 2380 nM in assay [3].
